Assay [1] is described as follows: Inhibition of PP2A in human red blood cells. Format: cell-based.
Assay [2] in a line: Selectivity ratio of IC50 for rabbit skeletal muscle PP1 over IC50 for human PP2A. The conditions noted are these: Muscle tissue. Format: tissue-based.
Assay [3] in a line: Inhibition of PP1 in rabbit skeletal muscle. Format: tissue-based, Oryctolagus cuniculus, Muscle tissue.
Assay [4] in a line: Selectivity ratio of IC50 for rabbit skeletal muscle PP1 over IC50 for bovine brain PP2B. It counts as tissue-based. The conditions noted are these: Muscle tissue.
The nature of assay [5]: (§1) Inhibition of bovine brain PP2B. Details: species or system Bos taurus.
Assay [6] is filed under the species Bos taurus. The description is as §1.

Where only a bound is given, the exact number is not on record here.

`CCc1ccccc1NC(=O)C1C(C(=O)O)[C@H]2CC[C@@H]1O2` (stereo partly specified): the IC50 stood at 24 µM in assay [1] and 51 µM in assay [3]. For the same molecule, the Ratio IC50 in assay [2] turned out to be 2.12.
The like results for `Cc1cccc(C)c1NC(=O)C1C(C(=O)O)[C@H]2CC[C@@H]1O2` (stereo partly specified) were, in that order, 72 µM, 56 µM and 0.78.
On to `C#Cc1cccc(NC(=O)C2C(C(=O)O)[C@H]3CC[C@@H]2O3)c1` (stereo partly specified), for which the values for the IC50 in assay [1] and in assay [3] were 18 µM and 17 µM, respectively. For the same molecule, the Ratio IC50 in assay [2] stood at 0.94.
For `O=C(NCCCCc1ccccc1)C1C(C(=O)O)[C@H]2CC[C@@H]1O2` (stereo partly specified), in that order: 95 µM, 75 µM and 0.79.
On to `CC(C)(C)c1ccc(NC(=O)C2C(C(=O)O)[C@H]3CC[C@@H]2O3)cc1` (stereo partly specified), for which the IC50 was 11 µM in assay [1] and 10 µM in assay [3]. In assay [2], the Ratio IC50 worked out at 0.91.
For `COc1ccc(NC(=O)C2C(C(=O)O)[C@H]3CC[C@@H]2O3)cc1` (stereo partly specified), in that order: 16 µM, 15 µM and 0.94.
As for `Cc1cccc(NC(=O)C2C(C(=O)O)[C@H]3CC[C@@H]2O3)c1C` (stereo partly specified), the IC50 came out at 18 µM in assay [1] and 17 µM in assay [3]. The Ratio IC50 in assay [2] amounted to 0.94.
With `CSc1ccc(NC(=O)C2C(C(=O)O)[C@H]3CC[C@@H]2O3)cc1` (stereo partly specified), the IC50 is 14 µM in assay [1] and 10 µM in assay [3]. Further, the Ratio IC50 in assay [2] is 0.71.
On to `O=C(NCCN1CCOCC1)C1C(C(=O)O)[C@H]2CC[C@@H]1O2` (stereo partly specified), for which the 50% inhibitory concentration (IC50) in assay [1] amounted to 43 µM; in assay [3], 30 µM. The Ratio IC50 in assay [2] turned out to be 0.7.
Take `CC(C)(C)c1ccc(NC(=O)C2C(C(=O)O)[C@H]3CC[C@@H]2O3)c(C(C)(C)C)c1` (stereo partly specified): the IC50 in assay [1] and in assay [3] was 8.2 µM in each case. In assay [2], the Ratio IC50 was found to be 1.
On to `O=C(Nc1ccccc1)C1C(C(=O)O)[C@H]2CC[C@@H]1O2` (stereo partly specified), for which the 50% inhibitory concentration (IC50) worked out at 7.7 µM in assay [1] and 24.3 µM in assay [3]. The Ratio IC50 in assay [2] was found to be 3.2.
Regarding `O=C(NCc1ccc(F)c(F)c1)C1C(C(=O)O)[C@H]2CC[C@@H]1O2` (stereo partly specified), the IC50 in assay [1] and in assay [3] was 26 µM each time. Moreover, in assay [2], the Ratio IC50 amounted to 1.
Turning to `Cc1cc(C)c(NC(=O)C2C(C(=O)O)[C@H]3CC[C@@H]2O3)c(C)c1` (stereo partly specified), the 50% inhibitory concentration (IC50) turned out to be 85 µM in assay [1], 89 µM in assay [5] and 48 µM in assay [3]. Moreover, the values for the Ratio IC50 in assay [4] and in assay [2] were 0.54 and 0.56, respectively.
For `O=C(Nc1ccccc1CO)C1C(C(=O)O)[C@H]2CC[C@@H]1O2` (stereo partly specified), the concentration for half-maximal inhibition (IC50) in assay [1] is 39 µM; in assay [3], 36 µM. The Ratio IC50 in assay [2] came to 0.92.
The like results for `O=C(NCc1ccc(C(F)(F)F)cc1)C1C(C(=O)O)[C@H]2CC[C@@H]1O2` (stereo partly specified) were, in that order, 20 µM, 16 µM and 0.8.
The like results for `CN(C)CCNC(=O)C1C(C(=O)O)[C@H]2CC[C@@H]1O2` (stereo partly specified) were, in that order, above 100 µM, 67 µM and below 0.67.
The like results for `O=C(Nc1ccc2ccccc2c1)C1C(C(=O)O)[C@H]2CC[C@@H]1O2` (stereo partly specified) were, in that order, 15 µM, 14 µM and 0.93.
Consider `O=C1OC(=O)C2C3CCC(O3)C12` (stereo unspecified) [DEMETHYL-CANTHARIDIN], for which the half-inhibitory concentration (IC50) in assay [1] stood at 2.69 µM; in assay [5] it was 31 µM; in assay [3], 10.3 µM. The Ratio IC50 was 0.33 in assay [4] and 3.8 in assay [2].
On to `CSc1ccccc1NC(=O)C1C(C(=O)O)[C@H]2CC[C@@H]1O2` (stereo partly specified), for which the half-inhibitory concentration (IC50) in assay [1] worked out at 33 µM; in assay [3], 23 µM. The Ratio IC50 in assay [2] is 0.7.
The like results for `O=C(NCc1ccccc1)C1C(C(=O)O)[C@H]2CC[C@@H]1O2` (stereo partly specified) were, in that order, 12 µM, 35 µM and 2.9.
The like results for `CCCCCCOc1ccc(NC(=O)C2C(C(=O)O)[C@H]3CC[C@@H]2O3)cc1` (stereo partly specified) were, in that order, 15 µM, 11 µM and 0.73.
The like results for `CN(C)CCCNC(=O)C1C(C(=O)O)[C@H]2CC[C@@H]1O2` (stereo partly specified) were, in that order, 57 µM, 43 µM and 0.75.
On to `O=C(NCCCc1ccccc1)C1C(C(=O)O)[C@H]2CC[C@@H]1O2` (stereo partly specified), for which the IC50 in assay [1] and in assay [3] was 25 µM each time. In addition, the Ratio IC50 in assay [2] turned out to be 1.
`C[C@@]12C(=O)OC(=O)[C@]1(C)[C@H]1CC[C@@H]2O1` [CANTHARIDIN]: the IC50 in assay [1] is 0.99 µM; in assay [6] it was above 100 µM; in assay [3], 7.6 µM. The results for the Ratio IC50 in assay [4] and in assay [2] were above 0.07 and 7.7, respectively.
Turning to `O=C(Nc1cccc(CO)c1)C1C(C(=O)O)[C@H]2CC[C@@H]1O2` (stereo partly specified), the values for the half-inhibitory concentration (IC50) in assay [1] and in assay [3] were 7 µM and 15 µM, respectively. Further, the Ratio IC50 in assay [2] turned out to be 2.14.
On to `O=C(Nc1ccc(N2CCOCC2)cc1)C1C(C(=O)O)[C@H]2CC[C@@H]1O2` (stereo partly specified), for which the figures for the 50% inhibitory concentration (IC50) in assay [1], in assay [5] and in assay [3] were 7.9 µM, 42 µM and 6.5 µM, respectively. Further, the results for the Ratio IC50 in assay [4] and in assay [2] were 0.15 and 0.82, respectively.

In general, IC50 refers to the concentration that inhibits the measured activity by half. A high value points to weaker potency.

For the origin of these results see ChEMBL document CHEMBL1137527, “Synthesis and biological evaluation of norcantharidin analogues: towards PP1 selectivity” (Bioorg Med Chem, 2007).
